Measurements reported in ChEMBL document CHEMBL1201862, “PubChem BioAssay data set” (2004).
Blank lines part the entries; values can stand above or below the compound they belong to. Activity calls are given as the source filed them.

Experiments:
[1] = target: Dual specificity tyrosine-phosphorylation-regulated kinase 1A (Rattus norvegicus, UniProt Q63470); type: biochemical, Homo sapiens
[2] = target: Cyclin-dependent kinase 5/CDK5 activator 1 (Homo sapiens, UniProt Q00535); assay: blockade of human CDK5 activity – biochemical, cherry-picked samples, set 2, dose response (AID 504545)
[3] = non-specific 3'UTR reporter inhibition in Clone20-Shn3RL – cell-based, Renilla luciferase, cherry-picked, counter-screen for Shn3 inhibitor project, dose response (AID 624133); type: functional
[4] = reduction of Shn3 3'UTR-driven luciferase in osteoblasts – cell-based, Clone20 osteoblasts, firefly luciferase, cherry-picked, dose response (AID 624132); type: functional;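 note: firefly luciferase luminescence from reporter carrying the Shn3 3'UTR in osteoblasts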
[5] = loss of viability in HepG2 cells – cell-based, CellTiter-Glo, cherry-picked, cytotoxicity control for Shn3 inhibitor project, dose response (AID 624134); type: functional
[6] = target: T1, Eukaryotic translation initiation factor 2-alpha kinase 3 (Homo sapiens, UniProt Q9NZJ5); assay: Counterscreen assay for PERK inhibitors: Dose response cell-based high throughput screening assay to measure inhibition of PERK at 6 hours. [Related pubchem assays: 1522, 1416 ]; type: functional
T1 sequence (Q9NZJ5 whole entry): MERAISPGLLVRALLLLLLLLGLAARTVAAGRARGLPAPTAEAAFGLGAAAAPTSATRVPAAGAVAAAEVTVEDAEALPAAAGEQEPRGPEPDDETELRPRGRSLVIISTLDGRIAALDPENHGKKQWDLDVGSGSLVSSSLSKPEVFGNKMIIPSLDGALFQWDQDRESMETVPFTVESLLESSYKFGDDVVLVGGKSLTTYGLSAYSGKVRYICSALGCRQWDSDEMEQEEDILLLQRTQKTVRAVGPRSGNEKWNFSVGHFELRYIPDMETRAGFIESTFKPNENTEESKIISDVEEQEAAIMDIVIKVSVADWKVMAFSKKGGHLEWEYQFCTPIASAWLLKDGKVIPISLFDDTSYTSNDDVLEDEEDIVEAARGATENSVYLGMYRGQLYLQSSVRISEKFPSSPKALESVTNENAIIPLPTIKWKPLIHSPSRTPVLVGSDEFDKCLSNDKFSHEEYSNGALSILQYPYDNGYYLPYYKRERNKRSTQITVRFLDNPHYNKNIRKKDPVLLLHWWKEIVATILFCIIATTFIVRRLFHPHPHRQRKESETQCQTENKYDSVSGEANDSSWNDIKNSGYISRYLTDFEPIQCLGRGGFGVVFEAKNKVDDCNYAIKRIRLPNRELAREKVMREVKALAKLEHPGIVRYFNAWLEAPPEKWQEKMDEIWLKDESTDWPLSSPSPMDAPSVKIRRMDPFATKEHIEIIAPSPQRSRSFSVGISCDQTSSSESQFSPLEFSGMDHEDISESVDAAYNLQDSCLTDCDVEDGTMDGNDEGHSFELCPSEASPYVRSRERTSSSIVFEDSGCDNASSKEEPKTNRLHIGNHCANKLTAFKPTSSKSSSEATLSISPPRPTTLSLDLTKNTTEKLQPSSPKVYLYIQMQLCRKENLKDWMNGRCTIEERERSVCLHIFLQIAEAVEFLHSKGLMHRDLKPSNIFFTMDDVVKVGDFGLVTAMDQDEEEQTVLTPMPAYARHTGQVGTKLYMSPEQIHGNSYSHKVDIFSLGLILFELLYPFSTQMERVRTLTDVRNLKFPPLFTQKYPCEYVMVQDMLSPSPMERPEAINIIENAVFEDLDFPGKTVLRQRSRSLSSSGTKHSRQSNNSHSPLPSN

[7] = target: T1, Eukaryotic translation initiation factor 2-alpha kinase 3; assay: Dose response cell-based high-throughput screening assay to measure PERK inhibition. [Related pubchem assays: 1416 ]; type: functional
[8] = target: Peroxisome proliferator-activated receptor gamma/Nuclear receptor coactivator 3 (Homo sapiens, UniProt P37231); type: functional;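 note: agonist potency for raising coactivator recruitment to the receptor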
[9] = target: Peroxisome proliferator-activated receptor gamma/Nuclear receptor coactivator 2 (Homo sapiens, UniProt P37231); type: functional;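 note: agonist potency for raising coactivator recruitment to the receptor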
[10] = target: Peroxisome proliferator-activated receptor gamma/Nuclear receptor coactivator 1 (Homo sapiens, UniProt P37231); type: functional;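 note: agonist potency as compounds enhance coactivator SRC-1 recruitment to PPARgamma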
Estrogen receptor = target: T2, Estrogen receptor (Homo sapiens, UniProt P03372);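 note: potency for inhibiting coactivator peptide recruitment to the receptor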
T2 sequence (P03372 whole entry): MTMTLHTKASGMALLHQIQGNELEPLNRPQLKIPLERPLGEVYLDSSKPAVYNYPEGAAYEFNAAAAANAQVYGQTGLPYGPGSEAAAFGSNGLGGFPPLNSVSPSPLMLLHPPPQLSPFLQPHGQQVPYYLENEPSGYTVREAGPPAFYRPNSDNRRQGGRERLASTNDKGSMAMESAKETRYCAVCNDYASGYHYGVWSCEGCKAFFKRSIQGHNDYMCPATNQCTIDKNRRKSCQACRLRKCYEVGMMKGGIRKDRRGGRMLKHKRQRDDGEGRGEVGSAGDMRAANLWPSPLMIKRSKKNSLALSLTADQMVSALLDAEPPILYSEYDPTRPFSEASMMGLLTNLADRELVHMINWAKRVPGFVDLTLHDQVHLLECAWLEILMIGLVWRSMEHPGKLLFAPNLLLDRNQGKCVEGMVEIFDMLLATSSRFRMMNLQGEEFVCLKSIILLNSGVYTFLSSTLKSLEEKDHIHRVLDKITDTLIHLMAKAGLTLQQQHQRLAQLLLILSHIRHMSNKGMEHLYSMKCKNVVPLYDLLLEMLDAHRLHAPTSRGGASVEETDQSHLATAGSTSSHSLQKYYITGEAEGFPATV

Estrogen receptor beta = Estrogen receptor beta (Homo sapiens, UniProt Q92731); assay: blockers of SRC-3 recruitment to ERβ – biochemical, ELISA, streptavidin-HRP readout, orthogonal assay, confirmation (AID 1060)
Chain of Estrogen receptor beta (Q92731 whole entry): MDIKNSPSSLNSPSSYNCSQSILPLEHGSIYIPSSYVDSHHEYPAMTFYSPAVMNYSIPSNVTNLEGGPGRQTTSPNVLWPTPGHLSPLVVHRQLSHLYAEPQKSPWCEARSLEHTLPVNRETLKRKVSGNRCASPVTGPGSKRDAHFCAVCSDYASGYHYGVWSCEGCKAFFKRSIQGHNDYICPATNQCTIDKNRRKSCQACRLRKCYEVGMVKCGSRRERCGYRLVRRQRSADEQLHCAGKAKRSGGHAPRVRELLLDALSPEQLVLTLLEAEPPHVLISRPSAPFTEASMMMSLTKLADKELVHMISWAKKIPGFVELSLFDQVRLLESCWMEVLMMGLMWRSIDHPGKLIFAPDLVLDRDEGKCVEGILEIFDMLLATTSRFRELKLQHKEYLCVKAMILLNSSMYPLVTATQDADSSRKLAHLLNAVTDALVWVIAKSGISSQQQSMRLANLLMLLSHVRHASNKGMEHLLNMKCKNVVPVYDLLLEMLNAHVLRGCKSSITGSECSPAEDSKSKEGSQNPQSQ

Chain of Peroxisome proliferator-activated receptor gamma/Nuclear receptor coactivator 3 (P37231 whole entry): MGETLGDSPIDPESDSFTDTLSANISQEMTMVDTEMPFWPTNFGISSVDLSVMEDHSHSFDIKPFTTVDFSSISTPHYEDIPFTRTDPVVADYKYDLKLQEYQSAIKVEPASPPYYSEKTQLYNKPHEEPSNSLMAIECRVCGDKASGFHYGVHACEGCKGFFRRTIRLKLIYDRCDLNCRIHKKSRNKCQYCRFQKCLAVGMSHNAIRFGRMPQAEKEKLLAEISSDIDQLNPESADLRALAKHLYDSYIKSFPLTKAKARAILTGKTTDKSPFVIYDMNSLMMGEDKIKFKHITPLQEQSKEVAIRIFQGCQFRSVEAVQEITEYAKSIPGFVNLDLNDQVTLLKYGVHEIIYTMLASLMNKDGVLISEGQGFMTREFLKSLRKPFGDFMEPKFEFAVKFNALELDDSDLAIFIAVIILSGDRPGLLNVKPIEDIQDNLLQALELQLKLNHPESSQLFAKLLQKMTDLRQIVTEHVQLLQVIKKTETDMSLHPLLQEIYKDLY
Chain of Peroxisome proliferator-activated receptor gamma/Nuclear receptor coactivator 3 (Q9Y6Q9 whole entry, further chain): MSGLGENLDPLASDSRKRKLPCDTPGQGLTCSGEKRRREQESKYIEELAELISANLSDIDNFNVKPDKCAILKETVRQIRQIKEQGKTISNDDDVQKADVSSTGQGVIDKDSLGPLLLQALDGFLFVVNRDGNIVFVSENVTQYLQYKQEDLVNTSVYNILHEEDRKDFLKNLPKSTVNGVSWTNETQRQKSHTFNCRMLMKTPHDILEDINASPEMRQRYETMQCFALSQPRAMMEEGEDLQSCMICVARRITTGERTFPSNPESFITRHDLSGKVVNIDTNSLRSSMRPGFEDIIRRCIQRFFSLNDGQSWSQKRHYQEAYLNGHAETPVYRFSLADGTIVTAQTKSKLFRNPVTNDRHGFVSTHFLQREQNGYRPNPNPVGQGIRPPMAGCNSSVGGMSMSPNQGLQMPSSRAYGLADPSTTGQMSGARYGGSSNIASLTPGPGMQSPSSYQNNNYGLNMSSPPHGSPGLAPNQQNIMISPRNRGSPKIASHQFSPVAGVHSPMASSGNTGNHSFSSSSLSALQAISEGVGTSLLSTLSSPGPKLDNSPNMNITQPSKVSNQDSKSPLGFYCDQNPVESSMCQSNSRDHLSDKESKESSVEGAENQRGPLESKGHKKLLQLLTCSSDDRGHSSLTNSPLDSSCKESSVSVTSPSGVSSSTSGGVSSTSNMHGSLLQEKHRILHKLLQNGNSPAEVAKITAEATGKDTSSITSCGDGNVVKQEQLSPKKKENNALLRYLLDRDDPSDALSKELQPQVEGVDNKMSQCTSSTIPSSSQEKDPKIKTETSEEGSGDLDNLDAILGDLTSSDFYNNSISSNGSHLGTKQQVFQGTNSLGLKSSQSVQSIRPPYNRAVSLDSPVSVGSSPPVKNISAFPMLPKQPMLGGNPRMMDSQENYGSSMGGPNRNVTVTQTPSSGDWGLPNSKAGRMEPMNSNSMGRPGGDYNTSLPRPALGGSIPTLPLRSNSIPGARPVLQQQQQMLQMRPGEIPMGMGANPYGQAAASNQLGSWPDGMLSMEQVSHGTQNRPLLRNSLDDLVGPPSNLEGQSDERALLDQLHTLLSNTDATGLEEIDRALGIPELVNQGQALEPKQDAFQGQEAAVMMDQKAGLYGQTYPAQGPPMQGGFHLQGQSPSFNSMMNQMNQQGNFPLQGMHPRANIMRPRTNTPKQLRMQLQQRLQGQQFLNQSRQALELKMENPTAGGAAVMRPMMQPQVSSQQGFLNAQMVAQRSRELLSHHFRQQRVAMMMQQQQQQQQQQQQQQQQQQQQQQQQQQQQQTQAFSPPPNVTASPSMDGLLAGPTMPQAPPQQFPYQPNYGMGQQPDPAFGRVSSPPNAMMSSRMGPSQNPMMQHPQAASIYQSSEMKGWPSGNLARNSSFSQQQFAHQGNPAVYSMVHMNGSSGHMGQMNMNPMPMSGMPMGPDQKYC
Chain of Peroxisome proliferator-activated receptor gamma/Nuclear receptor coactivator 1 (P37231 whole entry): as the sequence (P37231 whole entry) above
Chain of Peroxisome proliferator-activated receptor gamma/Nuclear receptor coactivator 1 (Q15788 whole entry, further chain): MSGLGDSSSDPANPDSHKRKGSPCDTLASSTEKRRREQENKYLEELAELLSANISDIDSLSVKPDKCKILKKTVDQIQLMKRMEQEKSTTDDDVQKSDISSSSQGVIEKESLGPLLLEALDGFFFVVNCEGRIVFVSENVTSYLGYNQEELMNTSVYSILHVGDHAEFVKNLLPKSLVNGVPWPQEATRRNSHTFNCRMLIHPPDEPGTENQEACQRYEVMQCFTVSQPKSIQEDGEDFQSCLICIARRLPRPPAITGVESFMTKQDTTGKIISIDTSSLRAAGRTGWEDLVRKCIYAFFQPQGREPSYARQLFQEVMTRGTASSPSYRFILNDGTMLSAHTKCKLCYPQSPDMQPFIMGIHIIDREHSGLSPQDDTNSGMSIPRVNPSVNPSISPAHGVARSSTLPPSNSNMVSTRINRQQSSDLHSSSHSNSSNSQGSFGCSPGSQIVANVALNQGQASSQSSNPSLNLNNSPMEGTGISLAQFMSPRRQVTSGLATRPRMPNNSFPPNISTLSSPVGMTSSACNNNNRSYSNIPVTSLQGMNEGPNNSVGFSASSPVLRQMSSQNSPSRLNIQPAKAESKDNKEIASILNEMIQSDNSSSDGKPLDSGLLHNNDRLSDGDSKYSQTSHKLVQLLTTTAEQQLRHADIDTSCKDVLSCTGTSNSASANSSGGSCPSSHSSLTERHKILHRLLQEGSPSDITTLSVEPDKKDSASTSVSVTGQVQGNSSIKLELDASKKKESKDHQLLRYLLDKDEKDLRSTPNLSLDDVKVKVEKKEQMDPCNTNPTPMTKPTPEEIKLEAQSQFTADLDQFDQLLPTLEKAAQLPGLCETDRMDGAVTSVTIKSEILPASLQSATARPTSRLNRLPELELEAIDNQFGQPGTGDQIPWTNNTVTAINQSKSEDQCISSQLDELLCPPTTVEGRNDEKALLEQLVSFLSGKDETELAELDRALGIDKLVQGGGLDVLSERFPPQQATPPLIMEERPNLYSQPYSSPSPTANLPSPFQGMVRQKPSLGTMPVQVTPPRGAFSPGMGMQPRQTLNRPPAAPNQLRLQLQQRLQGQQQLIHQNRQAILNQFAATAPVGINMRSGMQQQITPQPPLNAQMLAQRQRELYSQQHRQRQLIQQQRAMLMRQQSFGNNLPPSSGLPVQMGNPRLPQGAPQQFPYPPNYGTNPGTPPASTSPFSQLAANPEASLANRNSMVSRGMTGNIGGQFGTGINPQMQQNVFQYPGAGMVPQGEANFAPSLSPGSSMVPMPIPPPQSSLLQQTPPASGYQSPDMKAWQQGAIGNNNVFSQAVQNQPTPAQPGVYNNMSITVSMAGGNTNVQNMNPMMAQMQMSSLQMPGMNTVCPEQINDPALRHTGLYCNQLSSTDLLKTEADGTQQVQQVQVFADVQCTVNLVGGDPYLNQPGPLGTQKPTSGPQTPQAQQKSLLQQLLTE
Chain of Cyclin-dependent kinase 5/CDK5 activator 1 (Q00535 whole entry): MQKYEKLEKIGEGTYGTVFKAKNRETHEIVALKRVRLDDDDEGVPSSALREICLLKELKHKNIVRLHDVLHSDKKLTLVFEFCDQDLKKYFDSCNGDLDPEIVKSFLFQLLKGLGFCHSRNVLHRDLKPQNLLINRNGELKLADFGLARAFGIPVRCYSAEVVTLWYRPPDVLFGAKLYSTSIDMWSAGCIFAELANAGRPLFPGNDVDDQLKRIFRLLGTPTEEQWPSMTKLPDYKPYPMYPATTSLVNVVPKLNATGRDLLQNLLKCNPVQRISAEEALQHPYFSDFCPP
Chain of Cyclin-dependent kinase 5/CDK5 activator 1 (Q15078 whole entry, further chain): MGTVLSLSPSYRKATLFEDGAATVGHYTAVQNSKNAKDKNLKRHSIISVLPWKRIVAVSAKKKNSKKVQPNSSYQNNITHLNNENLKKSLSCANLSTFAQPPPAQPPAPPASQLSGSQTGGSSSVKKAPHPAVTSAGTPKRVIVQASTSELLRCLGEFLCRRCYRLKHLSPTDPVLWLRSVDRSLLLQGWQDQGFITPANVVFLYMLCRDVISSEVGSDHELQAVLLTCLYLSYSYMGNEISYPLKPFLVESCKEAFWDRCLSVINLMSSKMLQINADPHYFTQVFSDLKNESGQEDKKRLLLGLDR

SMILES: Cc1[nH]nc2c1-c1nc3ccccc3nc1C(C)(C)C2
AC50 [1]: 2.38 µM (active)
AC50 [2]: 14.7 µM (active)
AC50 [3]: 9.03 µM (active)
AC50 [4]: 4.2 µM (active)
AC50 [5]: 24.4 µM (active)

SMILES: O=C(O)c1ccc(C[S+]([O-])c2cccc(C(F)(F)F)c2)o1 (stereo not given)
EC50 [6]: > 55.7 µM (not active)
EC50 [7]: > 55.7 µM (not active)

The remaining lines, values ahead:

EC50 [8]: 79.2 µM (not active)
EC50 [9]: 145 µM (not active)
EC50 [10]: 71.2 µM (not active)
SMILES: CC1CCN(S(=O)(=O)c2ccc(C(=O)Nc3sccc3C(N)=O)cc2)CC1

IC50 (Estrogen receptor): 18.2 µM (active)
IC50 (Estrogen receptor beta): 0.0325 µM (not active)
SMILES: CCC1(C)NC(=O)N(CC(=O)Nc2sc3c(c2C(N)=O)CCC3)C1=O (stereo not given)

EC50 [8]: > 79.4 µM (not active)
EC50 [9]: > 79.4 µM (not active)
EC50 [10]: > 79.4 µM (not active)
SMILES: COc1ccccc1C(=O)Nc1ccccn1
